Measurements: paper PMC4490784, “Compensatory induction of MYC expression by sustained CDK9 inhibition via a BRD4-dependent mechanism” (eLife, 2015)

Assays:
GSK3B = molecular target: T1, GSK3B (Homo sapiens, UniProt P49841); assay: biochemical binding or enzymatic assay; settings: Novartis
T1 construct: purchased DiscoveRx KINOMEscan
In short: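 Dose-dependent follow-up of i-CDK9 against KINOMEscan-screened kinases, run as functional enzyme assays or as binding assays.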

[1] = molecular target: JAK2(JH1domain-catalytic) (Homo sapiens, UniProt O60674); assay: KINOMEscan binding assay; design: JAK2(JH1domain-catalytic); purchased DiscoveRx KINOMEscan
Chain of JAK2(JH1domain-catalytic) (O60674 840-1132 limits assumed): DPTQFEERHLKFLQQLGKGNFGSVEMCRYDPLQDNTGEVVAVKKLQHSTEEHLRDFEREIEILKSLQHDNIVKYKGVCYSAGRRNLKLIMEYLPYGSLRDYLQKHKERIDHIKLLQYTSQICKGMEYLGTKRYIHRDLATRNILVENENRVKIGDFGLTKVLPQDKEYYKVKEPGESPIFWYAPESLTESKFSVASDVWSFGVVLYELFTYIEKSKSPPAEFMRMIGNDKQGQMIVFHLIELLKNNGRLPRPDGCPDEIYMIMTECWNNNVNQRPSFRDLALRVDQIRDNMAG
Method: As there are no commercial or in-house kinase assays available for CDK3, CDK5, CDK11 and CDK13, the inhibitory abilities of i-CDK9 toward these CDKs were thus evaluated in the DiscoveRx KINOMEscan assay, which is based on a proprietary active site-directed competition-binding platform ([Fabian et al., 2005]).
The inhibitory activity of i-CDK9 for CDK1-CycB (Upstate/Millipore), CDK2-CycA (Invitrogen), CDK4-CycD1 (Novartis), CDK7-CycH-MAT1 (Invitrogen), and CDK9-CycT1 (Invitrogen) was assessed in the AlphaScreen (PerkinElmer, Inc)-based kinase assay developed at Novartis. Briefly, each CDK–cyclin pair was pre-incubated with i-CDK9 for 15 min, followed by addition of kinase substrates (ELK for CDK1 and CDK2, RB for CDK4, and CDK7tide for CDK7 and CDK9). The mixture was incubated at room temperature for additional 4–5 hr. The reaction was stopped and read on Envision (PerkinElmer, Inc). Selectivity against a large panel of over 400 kinases was evaluated using the KINOMEscan platform (DiscoveRx, CA) employing a proprietary active site-directed competition binding assay ([Fabian et al., 2005]). The assay was conducted at two different concentrations of i-CDK9 (1 and 10 µM) by DiscoveRx.

T1 sequence (P49841 whole entry): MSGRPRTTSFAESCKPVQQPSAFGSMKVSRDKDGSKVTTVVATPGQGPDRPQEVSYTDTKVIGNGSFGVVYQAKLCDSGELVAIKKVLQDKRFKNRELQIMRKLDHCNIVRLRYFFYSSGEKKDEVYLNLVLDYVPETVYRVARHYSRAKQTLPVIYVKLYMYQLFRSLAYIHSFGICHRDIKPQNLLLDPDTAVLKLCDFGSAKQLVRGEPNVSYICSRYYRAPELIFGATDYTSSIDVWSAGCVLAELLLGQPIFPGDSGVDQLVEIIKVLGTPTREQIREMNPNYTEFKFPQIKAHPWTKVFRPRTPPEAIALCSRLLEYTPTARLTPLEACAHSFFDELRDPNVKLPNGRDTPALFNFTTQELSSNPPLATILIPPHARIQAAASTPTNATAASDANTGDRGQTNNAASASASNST

## N[C@H]1CC[C@H](Nc2cc(-c3cccc(NCc4cccc(F)c4)n3)c(Cl)cn2)CC1 [i-CDK9, N2′-(trans-4-aminocyclohexyl)-5′-chloro-N6-(3-fluorobenzyl)-2,4′-bipyridine-2′,6-diamine]
GSK3B
  IC50: 1600 nM
[1]; 1 µM i-CDK9
  % Retention on Solid Support: 76%
[1]; 10 µM i-CDK9
  % Retention on Solid Support: 84%
